The text below walks through data of patent publication US8124587B2, “2-(aminomethyl)-5-chlorobenzylamide derivatives and their use as inhibitors of the clotting factor Xa” (The Medicines Company (Leipzig) GmbH, priority 2005, dated 2012).

pKi: −log10 of the molar value. Read-outs that look alike come from different tables or passages of the source. A value given as a limit tells only on which side of the number the result lay.

The pKi is −log10 of the Ki, conventionally taken in molar units. Read a high pKi as a small Ki. For orientation: Ki means a measure of affinity in units of concentration, obtained from inhibition or displacement.

Common to all, as to format: biochemical
The target in one experiment is T1, Thrombin (bovine) (Bos taurus, UniProt P00735).
T1 construct: Thrombin (bovine)
The experiment in a line: Enzyme kinetic determination of Ki with chromogenic substrate, thrombin. To be noted: for Ki: bovine thrombin, Tris buffer pH 8.0, 25° C., Pefachrome tPA, read-out: Ki (nM) Thrombin. As to the method:
(§1) The inhibitory effect of the inhibitors for factor Xa, thrombin and plasmin were estimated using specific synthetic chromogenic substrates. […] The inhibitor was dissolved in Tris buffer, the substrates (all Pentapharm Ltd., Basel, CH) in water. […] Three different substrate concentrations and five different inhibitor concentrations were measured in each case.
(§2) The following enzymes and substrates were used for the measurements:
Enzyme content: 2.5 IE/ml (in 0.9% NaCl with 1% HSA)
Substrate: CH3SO2-D-HHT-Gly-Arg-pNA (Pefachrome tPA),
concentration: 2, 1 and 0.5 mM; reaction time: 3 min

Another experiment addresses T2, Human plasmin (Homo sapiens, UniProt P00747).
T2 construct: Human plasmin (CHROMOGENIX, Milano, Italy); purchased CHROMOGENIX, Milano, Italy
The experiment is described as follows: Enzyme kinetic determination of Ki with chromogenic substrate, plasmin. Conditions: Tris buffer pH 8.0, 25° C., Chromozym PL. As to the method: as §1, §2
Human plasmin (CHROMOGENIX, Milano, Italy)
Substrate: Tos-Gly-Pro-Lys-pNA (Chromozym PL),
concentration: 2, 1 and 0.67 mM; reaction time: 3 min

A further experiment addresses T3, Human factor Xa (Homo sapiens, UniProt P00742).
T3 construct: Human factor Xa (Enzyme Research Lab., purchased from Haemochrom Diagnostica GmbH, Essen); purchased Enzyme Research Lab; (via Haemochrom Diagnostica GmbH, Essen)
The experiment is described as follows: Enzyme kinetic determination of Ki with chromogenic substrate, factor Xa. Conditions: Tris buffer pH 8.0, 25° C., Pefachrome Xa, read-out: Ki (nM) FXa. As to the method: as §1, §2
Human factor Xa (Enzyme Research Lab., purchased from Haemochrom Diagnostica GmbH, Essen)
Enzyme content: 0.67 μg/ml
Substrate: CH3OCO-D-Cha-Gly-Arg-pNA (Pefachrome Xa),
concentration: 4, 2 and 1 mM; reaction time: 4 min

T2 sequence (P00747 581-810 limits assumed): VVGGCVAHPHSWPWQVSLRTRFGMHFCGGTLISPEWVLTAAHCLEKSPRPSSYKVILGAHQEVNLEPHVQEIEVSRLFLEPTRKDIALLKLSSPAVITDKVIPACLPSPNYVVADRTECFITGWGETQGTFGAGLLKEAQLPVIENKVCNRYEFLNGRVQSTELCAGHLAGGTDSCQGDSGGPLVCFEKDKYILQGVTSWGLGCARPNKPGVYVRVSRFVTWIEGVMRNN
T2 sequence (P00747 97-580 limits assumed): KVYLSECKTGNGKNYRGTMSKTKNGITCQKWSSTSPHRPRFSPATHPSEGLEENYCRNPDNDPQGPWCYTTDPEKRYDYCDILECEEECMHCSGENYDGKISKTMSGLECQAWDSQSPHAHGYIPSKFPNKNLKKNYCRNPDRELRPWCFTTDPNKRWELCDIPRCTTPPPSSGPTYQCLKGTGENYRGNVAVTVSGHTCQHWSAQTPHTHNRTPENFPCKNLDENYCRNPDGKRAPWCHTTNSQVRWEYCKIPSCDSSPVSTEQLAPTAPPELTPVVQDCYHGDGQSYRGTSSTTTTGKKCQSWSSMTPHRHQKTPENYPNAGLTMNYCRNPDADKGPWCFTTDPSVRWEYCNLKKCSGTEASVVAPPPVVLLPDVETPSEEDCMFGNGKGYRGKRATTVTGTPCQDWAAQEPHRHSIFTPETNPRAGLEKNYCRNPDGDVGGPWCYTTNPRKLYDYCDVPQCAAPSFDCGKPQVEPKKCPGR
T3 sequence (P00742 235-488 limits assumed): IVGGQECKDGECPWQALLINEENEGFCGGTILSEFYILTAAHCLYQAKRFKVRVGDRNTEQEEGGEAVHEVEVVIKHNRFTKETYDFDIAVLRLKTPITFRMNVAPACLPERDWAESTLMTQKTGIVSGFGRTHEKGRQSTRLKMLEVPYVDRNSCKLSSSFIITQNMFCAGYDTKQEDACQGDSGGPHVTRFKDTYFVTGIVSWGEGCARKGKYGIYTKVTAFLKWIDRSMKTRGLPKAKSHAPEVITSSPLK
T3 sequence (P00742 41-179 limits assumed): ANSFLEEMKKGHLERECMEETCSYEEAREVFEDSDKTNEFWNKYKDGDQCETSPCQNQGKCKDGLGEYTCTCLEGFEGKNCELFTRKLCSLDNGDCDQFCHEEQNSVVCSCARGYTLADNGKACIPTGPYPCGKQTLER

As to `NCc1ccc(Cl)cc1CNC(=O)CNC(=O)[C@@H](CCc1cccc[n+]1[O-])NS(=O)(=O)Cc1ccccc1` [Inhibitor 1], the pKi at Thrombin (bovine) is 6.77. Further, the affinity at Human plasmin, expressed as Ki, was 600000 nM.
In turn, `NCc1ccc(Cl)cc1CNC(=O)[C@H](CO)NC(=O)C(CCc1ccccn1)NS(=O)(=O)Cc1ccccc1` (stereo partly drawn) [Inhibitor 3] had a pKi on Thrombin (bovine) of 6.59. On Human plasmin, this molecule came in with a Ki of 350000 nM.
Molecule `CCCS(=O)(=O)NC(CCc1cccc[n+]1[O-])C(=O)NCC(=O)NCc1cc(Cl)ccc1CN` (stereo not drawn) [Inhibitor 4] showed a pKi at Thrombin (bovine) of 5.58. On Human plasmin, this molecule registered a Ki of 280000 nM.
For the molecule `COC(=O)CC[C@H](NC(=O)C(CCc1cccc[n+]1[O-])NS(=O)(=O)Cc1ccccc1)C(=O)NCc1cc(Cl)ccc1CN` (stereo partly drawn) [Inhibitor 5], the Ki was 0.43 nM on Human factor Xa, 350 nM on Thrombin (bovine) and 130000 nM at Human plasmin.
For `NCc1ccc(Cl)cc1CNC(=O)[C@H](CCC(=O)O)NC(=O)C(CCc1cccc[n+]1[O-])NS(=O)(=O)Cc1ccccc1` (stereo partly drawn) [Inhibitor 6], at Thrombin (bovine), the pKi is 4.69. Also, at Human plasmin, affinity was put at a Ki of 400000 nM.
Regarding `NCc1ccc(Cl)cc1CNC(=O)[C@@H]1CCCN1C(=O)[C@@H](CCc1cccc[n+]1[O-])NS(=O)(=O)Cc1ccccc1` [Inhibitor 7], at Thrombin (bovine), the pKi was 9.25. Besides, at Human plasmin, the affinity, expressed as Ki, was 8470 nM.
For the molecule `NCc1ccc(Cl)cc1CNC(=O)CNC(=O)[C@H](O)CCc1ccccc1` [Inhibitor 8], the results for the Ki on Human factor Xa, on Thrombin (bovine) and on Human plasmin were 2200 nM, 1600 nM and 540000 nM, respectively.
As for `NCc1ccc(Cl)cc1CNC(=O)CNC(=O)C(CCc1cccc[n+]1[O-])NCC(=O)O` (stereo not drawn) [Inhibitor 9], the pKi on Thrombin (bovine) is 3.90. For the same molecule, the Ki at Human plasmin was > 1e+06 nM.
At Thrombin (bovine), `C[C@H](NC(=O)[C@@H](CCc1cccc[n+]1[O-])NS(=O)(=O)Cc1ccccc1)C(=O)NCc1cc(Cl)ccc1CN` [Inhibitor 10] gave a pKi of 6.77. This molecule came in with a Ki at Human plasmin of 85000 nM.
With `COC(=O)CC[C@H](NC(=O)[C@@H](CCc1cccc[n+]1[O-])NS(=O)(=O)Cc1ccccc1)C(=O)NCc1cc(Cl)ccc1CN` [Inhibitor 11], the results for the Ki at Human factor Xa, at Thrombin (bovine) and at Human plasmin were 0.24 nM, 180 nM and 78000 nM, respectively.
On to `NCc1ccc(Cl)cc1CNC(=O)[C@H](CN)NC(=O)[C@@H](CCc1cccc[n+]1[O-])NS(=O)(=O)Cc1ccccc1` [Inhibitor 12], for which the Ki on Human factor Xa came out at 0.54 nM; at Thrombin (bovine) it was 750 nM; at Human plasmin it was 2300 nM.
At Thrombin (bovine), `COC(=O)Cc1ccc(CS(=O)(=O)NC(CCc2cccc[n+]2[O-])C(=O)NCC(=O)NCc2cc(Cl)ccc2CN)cc1` (stereo not drawn) [Inhibitor 13] showed a pKi of 6.00. The molecule also showed a Ki at Human plasmin of 200000 nM.
`NCc1ccc(Cl)cc1CNC(=O)CNC(=O)C(CCc1cccc[n+]1[O-])NS(=O)(=O)Cc1ccc(CC(=O)O)cc1` (stereo not drawn) [Inhibitor 14] gave a pKi at Thrombin (bovine) of 6.03. Moreover, the Ki at Human plasmin was > 1e+06 nM.
With `NCc1ccc(Cl)cc1CNC(=O)CNC(=O)C(CCc1ccccn1)NS(=O)(=O)Cc1ccc(CC(=O)O)cc1` (stereo not drawn) [Inhibitor 15], the Ki at Human factor Xa was 0.68 nM; at Thrombin (bovine) it was 140 nM; on Human plasmin, > 1e+06 nM.
In the same order, the values of `NCc1ccc(Cl)cc1CNC(=O)[C@H](CO)NC(=O)[C@@H](CCc1cccc[n+]1[O-])NS(=O)(=O)Cc1ccc(CC(=O)O)cc1` [Inhibitor 17] are 0.18 nM, 540 nM and > 1e+06 nM.
In the same order, the values of `COC(=O)Cc1ccc(CS(=O)(=O)NC(CCc2ccccn2)C(=O)N[C@@H](CO)C(=O)NCc2cc(Cl)ccc2CN)cc1` (stereo partly drawn) [Inhibitor 18] are 0.67 nM, 430 nM and > 1e+06 nM.
On to `NCc1ccc(Cl)cc1CNC(=O)[C@H](CO)NC(=O)[C@@H](CCc1ccccn1)NS(=O)(=O)Cc1ccc(CC(=O)O)cc1` [Inhibitor 19], for which the Ki on Human factor Xa came to 0.78 nM; on Thrombin (bovine) it was 210 nM; on Human plasmin, 100000 nM.
`COC(=O)c1ccc(CS(=O)(=O)NC(CCc2cccc[n+]2[O-])C(=O)NCC(=O)NCc2cc(Cl)ccc2CN)cc1` (stereo not drawn) [Inhibitor 20]: the Ki was determined as 0.3 nM on Human factor Xa, 360 nM on Thrombin (bovine) and 140000 nM at Human plasmin.
The corresponding values for `NCc1ccc(Cl)cc1CNC(=O)CNC(=O)C(CCc1cccc[n+]1[O-])NS(=O)(=O)Cc1ccc(C(=O)O)cc1` (stereo not drawn) [Inhibitor 21] are 4.1 nM, 1300 nM and 130000 nM.
Take `COC(=O)c1ccc(CS(=O)(=O)NC(CCc2ccccn2)C(=O)NCC(=O)NCc2cc(Cl)ccc2CN)cc1` (stereo not drawn) [Inhibitor 22]: the Ki is 1.05 nM at Human factor Xa, 100 nM on Thrombin (bovine) and 98000 nM at Human plasmin.
The corresponding values for `NCc1ccc(Cl)cc1CNC(=O)CNC(=O)C(CCc1ccccn1)NS(=O)(=O)Cc1ccc(C(=O)O)cc1` (stereo not drawn) [Inhibitor 23] are 11 nM, 330 nM and 140000 nM.
With `COC(=O)c1ccc(CS(=O)(=O)NC(CCc2cccc[n+]2[O-])C(=O)N[C@@H](CO)C(=O)NCc2cc(Cl)ccc2CN)cc1` (stereo partly drawn) [Inhibitor 24], the Ki on Human factor Xa is 0.48 nM; on Thrombin (bovine), 930 nM; on Human plasmin, 160000 nM.
As for `NCc1ccc(Cl)cc1CNC(=O)CNC(=O)C(CCc1cccc[n+]1[O-])NS(=O)(=O)Cc1ccc[n+]([O-])c1` (stereo not drawn) [Inhibitor 25], the Ki on Human factor Xa is 1.4 nM; at Thrombin (bovine), 2500 nM; on Human plasmin it was > 1e+06 nM.
The corresponding values for `NCc1ccc(Cl)cc1CNC(=O)CNC(=O)C(CCc1ccccn1)NS(=O)(=O)Cc1cccnc1` (stereo not drawn) [Inhibitor 26] are 0.34 nM, 140 nM and 210000 nM.
On Thrombin (bovine), `NCc1ccc(Cl)cc1CNC(=O)[C@@H]1CCCN1C(=O)[C@@H](CCc1cccc[n+]1[O-])NS(=O)(=O)CC(=O)O` [Inhibitor 27] had a pKi of 7.66. The Ki at Human plasmin was found to be 98000 nM.
Turning to `CC(C)OC(=O)CS(=O)(=O)NC(CCc1cccc[n+]1[O-])C(=O)NCC(=O)NCc1cc(Cl)ccc1CN` (stereo not drawn) [Inhibitor 28], the figures for the Ki on Human factor Xa and on Human plasmin were 7.6 nM and 305000 nM, respectively. The molecule also gave a pKi on Thrombin (bovine) of 5.80.
As to `NCc1ccc(Cl)cc1CNC(=O)CNC(=O)C(CCc1cccc[n+]1[O-])NS(=O)(=O)CC(=O)O` (stereo not drawn) [Inhibitor 29], the pKi at Thrombin (bovine) is 5.08. In addition, the Ki at Human plasmin is > 1e+06 nM.
Take `CC(C)OC(=O)CS(=O)(=O)NC(CCc1ccccn1)C(=O)NCC(=O)NCc1cc(Cl)ccc1CN` (stereo not drawn) [Inhibitor 30]: the Ki at Human factor Xa amounted to 2.1 nM; on Thrombin (bovine) it was 66 nM; at Human plasmin, 290000 nM.
`NCc1ccc(Cl)cc1CNC(=O)[C@@H]1CCCN1C(=O)C(CCc1cccc[n+]1[O-])NC(=O)C(=O)O` (stereo partly drawn) [Inhibitor 31]: the Ki was determined as 0.88 nM on Human factor Xa, 43 nM on Thrombin (bovine) and 80000 nM at Human plasmin.
`NCc1ccc(Cl)cc1CNC(=O)CNC(=O)C(CCc1cccc[n+]1[O-])NC(=O)CC(=O)O` (stereo not drawn) [Inhibitor 32] showed a pKi on Thrombin (bovine) of 6.85.
Regarding `CCOC(=O)CN[C@H](CCc1cccc[n+]1[O-])C(=O)N1CCC[C@H]1C(=O)NCc1cc(Cl)ccc1CN` [Inhibitor 33], the Ki at Human factor Xa was found to be 0.4 nM; on Human plasmin it was 240000 nM.
Regarding `CCOC(=O)CN[C@H](CCc1ccccn1)C(=O)N1CCC[C@H]1C(=O)NCc1cc(Cl)ccc1CN` [Inhibitor 34], the negative logarithm of the Ki (pKi) on Thrombin (bovine) was 8.42.
Take `NCc1ccc(Cl)cc1CNC(=O)[C@@H]1CCCN1C(=O)[C@@H](CCc1cccc[n+]1[O-])NCC(=O)O` [Inhibitor 35]: the Ki is 0.4 nM on Human factor Xa and 100000 nM on Human plasmin. In addition, on Thrombin (bovine), the pKi is 7.76.
Consider `NCc1ccc(Cl)cc1CNC(=O)[C@@H]1CCCN1C(=O)[C@@H](CCc1cccc[n+]1[O-])NCC(=O)OC1CCCCC1` [Inhibitor 38], for which the Ki at Human factor Xa worked out at 1.01 nM.
